In article PMC3634732, “Chemical Chaperones Exceed the Chaperone Effects of RIC-3 in Promoting Assembly of Functional α7 AChRs” (PLoS ONE, 2013):
pEC50: −log10 of the molar value.

Assays:
Rat α7 AChRs = conditions: cited from earlier work
[1] = test system: endogenous α7 AChRs in SH-SY5Y neuroblastoma cell line; assay: Surface 125I αBgt binding in SH-SY5Y cells treated with chemical chaperones; format: cell-based, human
[2] = molecular target: T1, α7 AChRs on the surface of cells in the α7/RIC-3 line (Homo sapiens, UniProt P36544); assay: Upregulation of surface 125I αBgt binding in the α7/RIC-3 cell line; format: cell-based; conditions: single chemical chaperone
T1 construct: expressed in transfected cells

α7/RIC-3 cell line = assay: Tolerability of chemical chaperones in α7/RIC-3 culture; format: cell-based, human; conditions: 6 mM, applied for longer periods than a few days
[3] = test system: α7 AChRs in primary cultures of rat hippocampal neurons; assay: 125I αBgt binding to rat hippocampal neuron cultures; format: cell-based; conditions: for Increase of α7 AChR expression: VPA for 5 days

T1 sequence (P36544 23-502): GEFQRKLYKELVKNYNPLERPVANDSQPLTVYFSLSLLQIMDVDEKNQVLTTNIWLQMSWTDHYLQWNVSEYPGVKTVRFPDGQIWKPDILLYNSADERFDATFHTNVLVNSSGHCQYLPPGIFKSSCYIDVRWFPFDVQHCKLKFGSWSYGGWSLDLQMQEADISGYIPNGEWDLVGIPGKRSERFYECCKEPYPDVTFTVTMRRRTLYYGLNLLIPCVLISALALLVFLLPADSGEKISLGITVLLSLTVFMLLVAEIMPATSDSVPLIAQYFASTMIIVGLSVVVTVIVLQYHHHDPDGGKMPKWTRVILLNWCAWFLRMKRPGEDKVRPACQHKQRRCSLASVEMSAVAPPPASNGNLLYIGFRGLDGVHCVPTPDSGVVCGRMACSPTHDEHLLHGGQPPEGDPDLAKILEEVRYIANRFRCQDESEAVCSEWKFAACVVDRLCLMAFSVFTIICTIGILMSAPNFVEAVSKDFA

| Expression of α7 AChRs on the cell surface [2] | Effect on 125I αBgt binding ([3]; rat hippocampal neurons (data not shown)) | SMILES | pEC50 (Rat α7 AChRs) | Increase of 125I αBgt binding to the cell surface ([1]; 24 hours, 10 µM) [fold] | Increase of α7 AChRs in the cell surface vs control ([1]; 24 hours, 300 µM) [fold] | Increase in expression of α7 AChRs on the cell surface, maximum ([1]; concentration-dependent) | Toxicity in culture (α7/RIC-3 cell line) | Increase of α7 expression ([1]; 100 µM) [fold] | Increase of α7 AChR expression ([3]; at 20 days in culture) [%] | Increase of α7 AChR expression ([3]; cultures only 1 week old) [%] | Increase of 125I αBgt binding ([3]; long term treatment of primary cultures) [%] | Concentration giving maximum upregulation ([3]; rat hippocampal neurons) [mM] |
| --- | --- | --- | --- | --- | --- | --- | --- | --- | --- | --- | --- | --- |
|  |  | CC(=O)OCC[N+](C)(C)C [ACh] | 3.55 |  |  |  |  |  |  |  |  |  |
| greatly increased | ineffective | O=C(O)CCCc1ccccc1 [PBA, 4-phenylbutyric acid] |  | 3 | 7.8 | up to 7.8 fold | toxic when applied for longer periods |  |  |  |  |  |
| greatly increased |  | CCCC(CCC)C(=O)O [VPA, valproic acid] |  |  |  |  |  | 7.3 | 57 | 68 | 60 | 0.5 |
